Measured values published in US20160115200A1, “New Use for JNK Inhibitor Molecules for Treatment of Various Diseases” (XIGEN INFLAMMATION LTD., priority 2013, published 2016).
Square brackets hold non-standard residues; d marks the D form. Peptide text beside a SMILES is read from it.

Legend:
human whole blood = assay: Cytokine release in human whole blood stimulated 4 hours with LPS or PMA+ionomycin; format: cell-based; conditions: human whole blood, 1, 3, 10 μM
Protocol: FIG. 18 JNK inhibition and IL-6 release in human whole blood. The JNK inhibitor with SEQ ID NO: 172 was added at three different concentrations, namely 1, 3 and 10 μM 1 h before whole blood stimulation with LPS (0.02 ng/mL) for 4 hours.
FIG. 19 JNK inhibition and IL-2 release in human whole blood. The JNK inhibitor with SEQ ID NO: 172 was added at three different concentrations, namely 1, 3 and 10 μM 1 h before whole blood stimulation with PMA+ionomycin (25/700 ng/mL, 50/800 ng/mL and 50/1000 ng/mL) for 4 hours.
Whole blood is collected from anesthetized rat or human healthy volunteers using a venipuncture connected to a pre-labeled vacuum tube containing sodium citrate. Tubes are gently mixed by inversion 7-8 times; and are then kept at RT until stimulation. JNK inhibitor of SEQ ID NO: 172 is prepared 6 times concentrated in PBS, and 30 μl/well of mix is added into 96-well plate. Whole blood is diluted by 1:2 in PBS and 120 μl of diluted blood is added in each well where either PBS alone or JNK inhibitor of SEQ ID NO: 172 has been previously added. Whole blood is incubated at 37° C.; 85 rpm (Stuart Orbital incubator SI500) for 60 min. Activators (LPS) are the prepared, 30 μl/well of LPS, 6 times concentrated. After 60 min incubation, LPS is added to the blood, blood is mixed by pipetting up and down, and then kept for 4 h under agitation (85 rpm), at 37° C. After the 4 h incubation, the plates are centrifuged at about 770 g, 4° C. for 15 min in a pre-cooled centrifuge. Supernatants are finally collected and kept at −20° C. until cytokine measurement. Cytokine (IL-6, IL-2, IFNγ and TNFα) were then measured using standard Elisa kits (e.g. from R&D Systems: DuoSet Elisas; or from BD Biosciences: BD Opteia Set Elisa). Results are expressed as pg/ml of supernatant of the measured cytokine.
A similar experiment was conducted with PMA+ionomycin instead of LPS as activator/stimulant.

[1] = tested on: THP1-PMA-differentiated macrophages; assay: LPS-induced cytokine and chemokine release in PMA differentiated THP1 macrophages (ELISA); format: cell-based, human
Source text: The technique used is a Sandwich ELISA, which allows measuring the amount of antigen between two layers of antibodies (i.e. capture and detection antibody). The antigen to be measured must contain at least two antigenic sites capable of binding to antibody, since at least two antibodies act in the sandwich. Either monoclonal or polyclonal antibodies can be used as the capture and detection antibodies in Sandwich ELISA systems. Monoclonal antibodies recognize a single epitope that allows fine detection and quantification of small differences in antigen. A polyclonal is often used as the capture antibody to pull down as much of the antigen as possible.
In the following the procedure will be set forth describing how cytokine production from human PMA differentiated THP1 cells challenged by LPS for 6 h was induced in order to test the ability of JNK inhibitors of the present invention, in particular of a JNK inhibitor with SEQ ID NO: 172, to reduce stimulation-induced cytokine release. THP1 cells were stimulated ex-vivo by different ligands for the readout of cytokine release. At non toxic doses, JNK inhibitor efficacy is indicated by the decrease of the cytokine levels as compared to non-treated samples and is monitored by ELISA. The toxicity of the compound are evaluated by the reduction of a tretazolium salt (MTS) to formazan, giving a purple colour.
The cells were counted. The desired number of cells was taken and resuspended in the amount of media necessary to get a dilution of 1'000'000 cells/ml. 100 nM of PMA was added to induce the differentiation of the THP1 from suspension monocytes to adherent macrophages. The cells were plated into the wells in […] medium at plating densities of 100'000 cells/well. After inoculation, the plates were incubated at 37° C., 5% CO2 and 100% relative humidity 3 days to let them differentiate, prior to the addition of experimental drugs.
The plates were treated with 50 µl of medium or a solution of 4× the final desired drug concentration (0, 100 nM, 1, 3, 10 or 30 µM final for JNK compound or at 0, 10, 100 nM, 1, 3 or […] final for the SP600125 positive control). Following drug addition, the plates were incubated for an additional 1 h at 37° C., 5% CO2 and 100% relative humidity. […]
After 6 hours, 100 µl of the supernatant were transferred to new 96 well plates. Those plates were sealed and stored at −20° till the analysis by ELISA (e.g. see example 4) of the secretion of the cytokines.
Analyses of the data are performed as indicated in the ELISA (see example 4). Briefly, for ELISA: Average the triplicate readings for each standard control and each sample. Subtract the average zero standard optical density (O.D). Create a standard curve plotting the log of the cytokine concentration versus the log of the O.D and the best fit line can be determined by regression analysis. If samples have been diluted, the concentration read from the standard curve must be multiplied by the dilution factor. A standard curve should be generated for each set of samples assayed. The outliers data were avoid using Grugg's test. Then the data which weren't in the interval of two times the SD, were discard. […] The independent experiments are pooled (N>3).

[2] = dissolved in 0.9% NaCl, up to 0.4 mg/ml
Source text: To receive three different doses (cf. above, groups table) it has been serially diluted (1:10 fold).

SMILES: CC(C)C[C@H](NC(=O)[C@H](CC(N)=O)NC(=O)[C@H](CC(C)C)NC(=O)[C@@H](NC(=O)[C@@H](C)NC(=O)[C@@H]1CCCN1C(=O)[C@H](CCCNC(=N)N)NC(=O)[C@@H](CCCCN)NC(=O)[C@@H]1CCCN1C(=O)[C@H](CCCNC(=N)N)NC(=O)[C@@H](CCCNC(=N)N)NC(=O)[C@H](CCCNC(=N)N)NC(=O)[C@H](CCCNC(=N)N)NC(=O)[C@H](CCC(N)=O)NC(=O)[C@@H](CCCNC(=N)N)NC(=O)[C@H](CCCNC(=N)N)NC(=O)[C@H](CCCCN)NC(=O)[C@H](CCCCN)NC(=O)[C@H](N)CCCNC(=N)N)[C@@H](C)O)C(=O)N[C@H](Cc1ccccc1)C(N)=O [SEQ ID NO: 172, rKKRrQRRrRPkRPaTLNLf] (H-[dR]KKR[dR]QRR[dR]RP[dK]RP[dA]TLNL[dF]-NH2)
- PMA+ionomycin-induced IFN-γ release (human whole blood): reduce the PMA+ionomycin-induced IFN-γ release in a dose-dependent manner
- PMA+ionomycin-induced IL-2 release (human whole blood): reduce the PMA+ionomycin-induced IL-2 release in a dose-dependent manner
- PMA+ionomycin-induced TNF-α release (human whole blood): reduce the PMA+ionomycin-induced TNF-α release in a dose-dependent manner
- LPS-induced IL-6 release (human whole blood; LPS 0.02 ng/mL): reduce the LPS-induced IL-6 release in a dose-dependent manner
- LPS-induced IL6 release, potency compared with SEQ ID NO: 197, SEQ ID NO: 45 and SP 600125 ([1]; LPS 6 h (10 ng/ml)): higher potency
- LPS-induced TNFα release, potency compared with SEQ ID NO: 197, SEQ ID NO: 45 and SP 600125 ([1]; LPS 6 h (10 ng/ml)): higher potency
- LPS-induced TNFα release, potency compared with SEQ ID NO: 197 and SEQ ID NO: 196 ([1]; PMA differentiated macrophages): higher potency
- LPS-induced IL-6 release, potency compared with SEQ ID NO: 197 and SEQ ID NO: 196 ([1]; PMA differentiated macrophages, LPS 6 h): higher potency
- LPS-induced cytokine and chemokine release (TNF, IL 6, MCP1) ([1]; THP1pma, 6 h, 3 or 10 ng/ml LPS): blocks LPS-induced cytokine and chemokine release
- solubility [2]: readily soluble
